According to US11117900B2 (Vertex Pharmaceuticals Incorporated, priority 2012, dated 2021):

Tested on: HCT116 colorectal cancer cells
Assay: Cisplatin sensitization assay (96 h MTS cell viability);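 further: compound concentration needed to lower the IC50 of Cisplatin alone by a set fold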
Assay type: cell-based
Conditions: Cisplatin sensitization value
How it was run: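 HCT116 cells were dosed simultaneously with compound and cisplatin as a full matrix of 2-fold serial dilutions from 10 μM top final concentration. Incubation was 96 h at 37° C., 5% CO2, followed by 1 h with MTS reagent for the viability read-out. Sensitization values were binned into +++, ++ and + categories.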

SMILES	Cisplatin Sensitization Assay
Nc1nn2cc(F)cnc2c1C(=O)Nc1cncc(F)c1N1CCC(C(=O)N2CC[C@H](N3CCCC3)C2)CC1 [I-G-58, (S)—N-(4-(4-([1,3′-bipyrrolidine]-1′-carbonyl)piperidin-1-yl)-5-fluoropyridin-3-yl)-2-amino-6-fluoropyrazolo[1,5-a]pyrimidine-3-carboxamide]	+++ (Compounds with a Cisplatin sensitization value of <0.02 μM are marked with “+++.”)
CN1CCN(c2ccncc2NC(=O)c2c(N)nn3cc(Cl)cnc23)CC1(C)C [I-N-53, 2-amino-6-chloro-N-(4-(3,3,4-trimethylpiperazin-1-yl)pyridin-3-yl)pyrazolo[1,5-a]pyrimidine-3-carboxamide]	++ (Compounds with a Cisplatin sensitization value >0.02 μM but <0.2 μM are marked with “++.”)
Nc1nn2cc(F)cnc2c1C(=O)Nc1cnccc1OC1CCC(C(=O)O)CC1 (centres unmarked) [I-O-8, 4-((3-(2-amino-6-fluoropyrazolo[1,5-a]pyrimidine-3-carboxamido)pyridin-4-yl)oxy)cyclohexanecarboxylic acid]	+ (Compounds with a Cisplatin sensitization value >0.2 μM but <5 μM are marked with “+.”)
Nc1nn2cc(F)cnc2c1C(=O)Nc1cnccc1-c1ccc(S(=O)(=O)N2CCC2)cc1 [I-C-64, 2-amino-N-(4-(4-(azetidin-1-ylsulfonyl)phenyl)pyridin-3-yl)-6-fluoropyrazolo[1,5-a]pyrimidine-3-carboxamide]	+++ (Compounds with a Cisplatin sensitization value of <0.02 μM are marked with “+++.”)
Cc1ncn(-c2ccncc2NC(=O)c2c(N)nn3cc(F)cnc23)c1C [I-N-269, 2-amino-N-(4-(4,5-dimethyl-1H-imidazol-1-yl)pyridin-3-yl)-6-fluoropyrazolo[1,5-a]pyrimidine-3-carboxamide]	++ (Compounds with a Cisplatin sensitization value >0.02 μM but <0.2 μM are marked with “++.”)
Nc1nn2cc(F)cnc2c1C(=O)Nc1cnccc1N1CCOCC1 [I-N-141, 2-amino-6-fluoro-N-(4-morpholinopyridin-3-yl)pyrazolo[1,5-a]pyrimidine-3-carboxamide]	+++ (Compounds with a Cisplatin sensitization value of <0.02 μM are marked with “+++.”)
CC(=O)N1CCC(c2ccncc2NC(=O)c2c(N)nn3cc(F)cnc23)CC1 [I-C-69, N-(4-(1-acetylpiperidin-4-yl)pyridin-3-yl)-2-amino-6-fluoropyrazolo[1,5-a]pyrimidine-3-carboxamide]	+++ (Compounds with a Cisplatin sensitization value of <0.02 μM are marked with “+++.”)
CN1CCN(CC2CCN(c3c(F)cncc3NC(=O)c3c(N)nn4cc(C5(C#N)CC5)cnc34)CC2)CC1 [I-N-192, 2-amino-6-(1-cyanocyclopropyl)-N-(5-fluoro-4-(4-((4-methylpiperazin-1-yl)methyl)piperidin-1-yl)pyridin-3-yl)pyrazolo[1,5-a]pyrimidine-3-carboxamide]	+++ (Compounds with a Cisplatin sensitization value of <0.02 μM are marked with “+++.”)
CN1CCN(C(=O)C2CCN(c3c(Cl)cncc3NC(=O)c3c(N)nn4cc(F)cnc34)CC2)CC1 [I-G-3, 2-amino-N-(5-chloro-4-(4-(4-methylpiperazine-1-carbonyl)piperidin-1-yl)pyridin-3-yl)-6-fluoropyrazolo[1,5-a]pyrimidine-3-carboxamide]	+++ (Compounds with a Cisplatin sensitization value of <0.02 μM are marked with “+++.”)
Nc1nn2cc(F)cnc2c1C(=O)Nc1cncc(F)c1N1CCC2(CC1)COC2 [I-N-239, 2-amino-6-fluoro-N-(5-fluoro-4-(2-oxa-7-azaspiro[3.5]nonan-7-yl)pyridin-3-yl)pyrazolo[1,5-a]pyrimidine-3-carboxamide]	+++ (Compounds with a Cisplatin sensitization value of <0.02 μM are marked with “+++.”)
Nc1nn2cc(Cl)cnc2c1C(=O)Nc1cnccc1-n1ccnc1 [I-N-29, N-(4-(1H-imidazol-1-yl)pyridin-3-yl)-2-amino-6-chloropyrazolo[1,5-a]pyrimidine-3-carboxamide]	++ (Compounds with a Cisplatin sensitization value >0.02 μM but <0.2 μM are marked with “++.”)
Nc1nn2cc(F)cnc2c1C(=O)Nc1cncc(F)c1N1CCN2C(=O)CCC2C1 (centres unmarked) [I-N-163, 2-amino-6-fluoro-N-(5-fluoro-4-(6-oxohexahydropyrrolo[1,2-a]pyrazin-2(1H)-yl)pyridin-3-yl)pyrazolo[1,5-a]pyrimidine-3-carboxamide]	+++ (Compounds with a Cisplatin sensitization value of <0.02 μM are marked with “+++.”)
CN1CCC[C@@H]1C(=O)N1CCN(c2ccncc2NC(=O)c2c(N)nn3cc(F)cnc23)CC1 [I-N-199, (R)-2-amino-6-fluoro-N-(4-(4-(1-methylpyrrolidine-2-carbonyl)piperazin-1-yl)pyridin-3-yl)pyrazolo[1,5-a]pyrimidine-3-carboxamide]	+++ (Compounds with a Cisplatin sensitization value of <0.02 μM are marked with “+++.”)
CN1CCN(C(=O)C2CCCN(c3c(F)cncc3NC(=O)c3c(N)nn4cc(F)cnc34)C2)CC1 (centres unmarked) [I-N-289, 2-amino-6-fluoro-N-(5-fluoro-4-(3-(4-methylpiperazine-1-carbonyl)piperidin-1-yl)pyridin-3-yl)pyrazolo[1,5-a]pyrimidine-3-carboxamide]	++ (Compounds with a Cisplatin sensitization value >0.02 μM but <0.2 μM are marked with “++.”)
N#CCc1cnc2c(C(=O)Nc3cnccc3N3CCOC(CN)C3)c(N)nn2c1 (centres unmarked) [I-N-90, 2-amino-N-(4-(2-(aminomethyl)morpholino)pyridin-3-yl)-6-(cyanomethyl)pyrazolo[1,5-a]pyrimidine-3-carboxamide]	+ (Compounds with a Cisplatin sensitization value >0.2 μM but <5 μM are marked with “+.”)
Nc1nn2cc(F)cnc2c1C(=O)Nc1cnccc1N1CCN2CCOC[C@@H]2C1 [I-N-115, (S)-2-amino-6-fluoro-N-(4-(hexahydropyrazino[2,1-c][1,4]oxazin-8(1H)-yl)pyridin-3-yl)pyrazolo[1,5-a]pyrimidine-3-carboxamide]	+++ (Compounds with a Cisplatin sensitization value of <0.02 μM are marked with “+++.”)
CN1CCN(C2CCN(c3ccncc3NC(=O)c3c(N)nn4cc(Cl)cnc34)CC2)CC1 [I-N-97, 2-amino-6-chloro-N-(4-(4-(4-methylpiperazin-1-yl)piperidin-1-yl)pyridin-3-yl)pyrazolo[1,5-a]pyrimidine-3-carboxamide]	+++ (Compounds with a Cisplatin sensitization value of <0.02 μM are marked with “+++.”)
CN1CCN(C(=O)C2CCN(c3c(F)cncc3NC(=O)c3c(N)nn4cc(F)cnc34)CC2)C2CC21 (centres unmarked) [I-G-65, 2-amino-6-fluoro-N-(5-fluoro-4-(4-(5-methyl-2,5-diazabicyclo[4.1.0]heptane-2-carbonyl)piperidin-1-yl)pyridin-3-yl)pyrazolo[1,5-a]pyrimidine-3-carboxamide]	+++ (Compounds with a Cisplatin sensitization value of <0.02 μM are marked with “+++.”)
Nc1nn2cc(Cl)cnc2c1C(=O)Nc1cnccc1O[C@H]1C[C@@]2(CCN2)C1 [I-O-79]	++ (Compounds with a Cisplatin sensitization value >0.02 μM but <0.2 μM are marked with “++.”)
Cc1cncc(NC(=O)c2c(N)nn3cc(F)cnc23)c1N1CCC(C(=O)N2CCNCC2)CC1 [I-G-56, 2-amino-6-fluoro-N-(5-methyl-4-(4-(piperazine-1-carbonyl)piperidin-1-yl)pyridin-3-yl)pyrazolo[1,5-a]pyrimidine-3-carboxamide]	+++ (Compounds with a Cisplatin sensitization value of <0.02 μM are marked with “+++.”)
CN1CCOC[C@@H]1c1ccc(-c2ccncc2NC(=O)c2c(N)nn3cc(F)cnc23)cc1 [I-C-66, (S)-2-amino-6-fluoro-N-(4-(4-(4-methylmorpholin-3-yl)phenyl)pyridin-3-yl)pyrazolo[1,5-a]pyrimidine-3-carboxamide]	+++ (Compounds with a Cisplatin sensitization value of <0.02 μM are marked with “+++.”)
Cc1nncn1-c1ccncc1NC(=O)c1c(N)nn2cc(F)cnc12 [I-N-263, 2-amino-6-fluoro-N-(4-(3-methyl-4H-1,2,4-triazol-4-yl)pyridin-3-yl)pyrazolo[1,5-a]pyrimidine-3-carboxamide]	+ (Compounds with a Cisplatin sensitization value >0.2 μM but <5 μM are marked with “+.”)
CN(C)CCc1cnn(-c2ccncc2NC(=O)c2c(N)nn3cc(F)cnc23)c1 [I-N-9, 2-amino-N-(4-(4-(2-(dimethylamino)ethyl)-1H-pyrazol-1-yl)pyridin-3-yl)-6-fluoropyrazolo[1,5-a]pyrimidine-3-carboxamide]	+ (Compounds with a Cisplatin sensitization value >0.2 μM but <5 μM are marked with “+.”)
Nc1nn2cc(F)cnc2c1C(=O)Nc1cncc(F)c1N1CCC(S(=O)(=O)N2CCC2)CC1 [I-N-169, 2-amino-N-(4-(4-(azetidin-1-ylsulfonyl)piperidin-1-yl)-5-fluoropyridin-3-yl)-6-fluoropyrazolo[1,5-a]pyrimidine-3-carboxamide]	+++ (Compounds with a Cisplatin sensitization value of <0.02 μM are marked with “+++.”)
CS(=O)(=O)C1CN(C(=O)C2CCN(c3ccncc3NC(=O)c3c(N)nn4cc(F)cnc34)CC2)C1 [I-G-89, 2-amino-6-fluoro-N-(4-(4-(3-(methylsulfonyl)azetidine-1-carbonyl)piperidin-1-yl)pyridin-3-yl)pyrazolo[1,5-a]pyrimidine-3-carboxamide]	+ (Compounds with a Cisplatin sensitization value >0.2 μM but <5 μM are marked with “+.”)
N#CCc1cnc2c(C(=O)Nc3cnccc3OCCN)c(N)nn2c1 [I-O-83, 2-amino-N-(4-(2-aminoethoxy)pyridin-3-yl)-6-(cyanomethyl)pyrazolo[1,5-a]pyrimidine-3-carboxamide]	+++ (Compounds with a Cisplatin sensitization value of <0.02 μM are marked with “+++.”)
